From patent US20220175761A1, “BI-LIGAND DRUG CONJUGATE AND USE THEREOF” (COHERENT BIOPHARMA (SUZHOU), LIMITED, priority 2019, published 2022)
Several values for one entry are separate records, joined by “and”; a condition that tells them apart may be missing. Equal values may be shown once. Square brackets hold non-standard residues; d marks the D form. Peptide text beside a SMILES is read from it. * marks the point of attachment. Dolaproine = CO[C@@H]([C@@H]1CCCN1)[C@@H](C)C(=O)O; Dil = CC[C@H](C)[C@H](NC)[C@@H](CC(=O)O)OC; X1 = C[C@@H](N*)[C@@H](O)c1ccccc1; NMeV = CN[C@H](C(=O)O)C(C)C

Assays:
[1] = tested on: LNCaP (human prostate cancer cells); test: Inhibition of cell line proliferation, CCK8; type: cell-based; settings: LNCaP; for IC50: 68-72 hours, CCK8
[2] = tested on: PANC-1 (human pancreatic cancer cells); test: Inhibition of cell line proliferation, CCK8; type: cell-based; settings: for IC50: PANC-1, 68-72 hours, CCK8
Experimental: (§1) Experimental operations: PANC-1 and CFPAC-1 cells were prepared in advance, counted, and plated in 96-well cell culture plates at a cell density of 4×10^4 cells/ml (100 μl/well); negative control and blank control wells were set on each plate. After adherent cell culture overnight, the diluted samples to be tested were added at 50 μl/well. The plates were placed in an incubator at 37° C., 5% CO2 and cultured for 68-72 hours. To each well, 15 μl (10% of the liquid volume in a well) of a color developing solution from CCK8 was added; and the plates were incubated at 37° C. for 45-70 minutes and each plate was read at 450 nm on a microplate reader. The data was edited using SoftMax Pro and a 4-P fitting curve was plotted.
(§2) Experimental operations: LNCaP, SK-BR-3, NCI-H226, CFPAC-1 and PANC-1 cells were prepared in advance and counted; with a culture medium (IMDM+10% FBS+1× L-Glutamine+1×P/S), the cells LNCaP, SK-BR-3 and CFPAC-1 were diluted to 4×10^4 cells/ml, NCI-H226 was diluted to 2.0×10^4 cells/ml and PANC-1 was diluted to 3.0×10^4 cells/ml; the diluted cell solution was plated in 96-well plates at 100 μl/well; and negative control and blank control wells were set on each plate. After adherent cell culture overnight, the diluted samples to be tested were added at 50 μl/well. The plates were placed in an incubator at 37° C., 5% CO2 and cultured for 68-72 hours. To each well, 15 μl (10% of the liquid volume in a well) of a color developing solution from CCK8 was added; and the plates were incubated at 37° C. for 45-70 minutes and each plate was read at 450 nm on a microplate reader. The data was edited using SoftMax Pro and a 4-P fitting curve was plotted.
as §2, with “Operations:” for “operations:”, “MDA-MB-468,” for “SK-BR-3, NCI-H226,”, “MDA-MB-468” for “SK-BR-3”, “cells/ml,” for “cells/ml, NCI-H226 was diluted to 2.0×10^4 cells/ml”

[3] = tested on: 22RV1 (human prostate cancer cells); test: Inhibition of cell line proliferation, CCK8; type: cell-based; settings: for IC50: 22RV1, 68-72 hours, CCK8
Description: Since different cells have different sensitivity to a cell proliferation inhibitory toxicity of the payload in a ligand conjugate, the quantitative analysis may be interfered occasionally. A series of cell lines with known expression levels of receptors of different ligands were selected and tested for the response to inhibitory effects of the cell proliferation of a ligand conjugate and a single payload. The IC50 ratio of a single payload to that of a ligand conjugate in same cell line were taken to remove such interference.
as §1, with “LNCaP” for “PANC-1”, “22RV1” for “CFPAC-1”, “cells/ml and 2.0×10^4 cells/ml, respectively” for “cells/ml”

[4] = tested on: CFPAC-1 (human pancreatic cancer cells); test: Inhibition of cell line proliferation, CCK8; type: cell-based; settings: for IC50: CFPAC-1, 68-72 hours, CCK8
[5] = Body weight and clinical observation in the LU2505 study; type: in vivo, BALB/c nude mice; settings: 0.375 mg/kg on day 1, 8, 15, D22
Description: The active substance of test sample CBP-1018 is CB-20BK, which is obtained by mixing CB-20BK with auxiliary materials and then lyophilizing same.

Compound	IC50 ratio (MMAE/conjugate) [1]	IC50 [1]	IC50 (MMAE)/IC50 (conjugate) ([2]; PANC-1)	IC50 [2] [nM]	IC50 ratio (MMAE/conjugate) ([3]; 22RV1)	IC50 [3] [nM]	IC50 (MMAE)/IC50 (conjugate) ([4]; CFPAC-1)	IC50 [4] [nM]	Weight [5] [g]
CC[C@H](C)[C@@H]([C@@H](CC(=O)N1CCC[C@H]1[C@H](OC)[C@@H](C)C(=O)N[C@H](C)[C@@H](O)c1ccccc1)OC)N(C)C(=O)[C@@H](NC(=O)[C@H](C(C)C)N(C)C(=O)OCc1ccc(NC(=O)C(CCCNC(N)=O)NC(=O)[C@@H](NC(=O)CCCCCN2C(=O)CC(SC[C@H](NC(=O)[C@H](CCCCN)NC(=O)[C@H](CC(=O)O)NC(=O)[C@H](CC(=O)O)NC(=O)Cc3ccc(CNC(=O)NCCCC[C@H](NC(=O)N[C@@H](CCC(=O)O)C(=O)O)C(=O)O)cc3)C(=O)N[C@@H](CCCCNC(=O)CC[C@H](NC(=O)c3ccc(NCc4cnc5[nH]c(N)nc(=O)c5n4)cc3)C(=O)O)C(N)=O)C2=O)C(C)C)cc1)C(C)C (stereo partly shown) [CB-20BK]	0.0267	95.8 nM	0.020	126	0.013	502	0.027	557	–
CC[C@H](C)[C@@H]([C@@H](CC(=O)N1CCC[C@H]1[C@H](OC)[C@@H](C)C(=O)N[C@H](C)[C@@H](O)c1ccccc1)OC)N(C)C(=O)[C@@H](NC(=O)[C@@H](NC)C(C)C)C(C)C [MMAE, monomethyl auristatin E] (H-[NMeV]V[Dil][Dolaproine]-X1)	–	2.55 nM and 3 nM	–	2	–	6.48	–	15	23.5
